Experimental data taken from patent US9522882B2, “Strigolactam derivatives as plant growth regulating compounds” (Syngenta Participations AG, priority 2011, dated 2016).

Assays:
[1] = test system: Orobanche cumana Wallr. seeds; experiment: Orobanche cumana seed germination test on glass fiber filter paper in petri dishes; format: in vivo; settings: mean, n = 5 × 100 seeds; for Germination %* at concentration of 0.001 mg I^−1 / Germination %* at concentration of 0.01 mg I^−1 / Germination %* at concentration of 0.1 mg I^−1: preconditioned Orobanche cumana seeds of lot IN153, race F
Description: The effect of compounds of Formula (I) on germination of Orobanche cumana Wallr. seeds was evaluated on glass fiber filter paper (GFFP) in petri dishes. Seeds were preconditioned at moisture and suitable temperature to become responsive to the specific chemical germination stimulants.
Test compounds were dissolved in DMSO (10 000 mg l^−1) and stored at room temperature in a desiccators with desiccants. The stock solutions were dissolved with deionised water to the appropriate final test concentration.
Seeds of O. cumana race ‘F’ were collected from sunflower fields in Manzanilla (Seville, Spain) in 2006 (seed lot 1N146) and 2008 (seed lot 1N153) and stored at room temperature. To separate seeds from heavy organic debris, a modified sucrose floatation technique as described by Hartman & Tanimonure (Plant Disease (1991), 75, p. 494) was applied. Seeds were filled into a separation funnel and stirred in water. When seeds floated to the surface, the water fraction containing heavy debris was discarded. Seeds were re-suspended in 2.5M sucrose solution (specific gravity of 1.20) and heavy debris was allowed to settle down for 60 min. After removing debris, seeds were disinfected in 1% sodium hypochlorite solution and 0.025% (v/v) Tween 20 for 2 min. The seeds were decanted onto two layers of cheesecloth, rinsed with sterile deionised water and re-suspended in sterile deionised water. Two ml of the seed suspension containing approximately 150-400 seeds were spread evenly on two layers of sterile glass fiber filter paper disc ([…]) in Petri dishes (Ø9 cm). After wetting the discs with 3 ml sterile deionised water, petri dishes were sealed with parafilm. Seeds were incubated for 10 days at 20° C. in the dark for seed conditioning. The upper disc with conditioned seeds was briefly dried, transferred to a petri dish lined with a dry GFFP disc, and wetted with 6 ml of the appropriate test solution. The compounds of Formula (I) were tested at concentrations of 0.001, 0.01, and 0.1 mg l^−1. The strigolactone analogue GR24 (commercially available as a mixture of isomers) was included as positive control and 0.001% DMSO as negative control. All treatments were tested in five replicates. Seeds were re-incubated at 20° C. in the dark and examined for germination 10 days later. The radicles of germinated seeds were stained for 5 min with blue ink (MIGROS, Switzerland) in 5% acetic acid according to Long et al. (Seed Science Research (2008), 18, p. 125). After staining, seeds were scanned using a flatbed scanner with an optical resolution of 1200 dpi (PULSTEK, OpticPro ST28) or photographed using a camera stand mounted with a digital SLR camera (Canon EOS 5D). Germination of 100 seeds per replicate was evaluated on digital images. Seeds were considered germinated when the radicle protruded from the seed coat.

[2] = test system: Brassica oleracea cv Botrytis; experiment: Standard paper germination test for Brassica (tropical cauliflower seeds, 20° C. in the dark); format: in vivo; settings: tropical cauliflower 3C150 (seed batch 11B295), 25 μM
Description: The effect of compounds of Formula (I) on the germination of Brassica oleracea cv Botrytis or common cauliflower was tested on tropical types. […] Germination of a sensitive tropical type at 20° is stimulated by the presence of light.
The tropical seed batch tested was part of seed batches produced as basic seed (for maintenance of the parental line) and were processed accordingly.
Germination was assessed using the standard paper germination test for Brassica: Fifty seeds were placed on blue germination paper, which was moistened with the appropriate solutions, in closed oblong germination boxes. Each condition was tested in duplo. Germination boxes were placed in controlled germination cabinets with the appropriate temperature and light conditions. Germination of seeds was counted at regular intervals. Seeds were considered to be germinated when the radical had protruded the testa and endosperm (radical size approximately 1 mm). Germination kinetics were analyzed using the Germinator analysis tool in order to obtain the parameters: Gmax (maximum germination) and t50 (time needed to reach 50% of the Gmax). The Germinator analysis tool is an add-in in for excel developed by the University of Wageningen: Joosen, R. V. L., J. Kodde, et al. (2010). (“Germinator: A Software Package for High-Throughput Scoring and Curve Fitting of Arabidopsis Seed Germination.” The Plant Journal 62(1): 148-159.)
Test compounds were dissolved in DMSO at a concentration of 50 mM and stored at −20° C. The strigolactone analogue GR24 (commercially available as a racemic mixture of 2 diastereoisomers, referred to as “synthetic strigolactone GR-24” and first prepared by Johnson A. W. & all, Journal of the Chemical Society, Perkin Transactions 1, 1981, page 1734-1743) was included as positive control. Germination solutions were prepared by diluting the stock solutions with demineralized water till 25 μM. As control solutions demineralized water and a 0.05% v/v DMSO solution were used.

[3] = aqueous control (0.001% DMSO) = 0.2% germination
[4] = Table 3, preconditioned seeds of lot IN146, raceF, aqueous control (0.001% DMSO) = 0% germination
[5] = Table 5, preconditioned seeds of lot IN153, raceF, aqueous control (0.001% DMSO) = 0.2% germination
[6] = Table 6, preconditioned seeds of lot IN153, raceF, aqueous control (0.001% DMSO) = 0.8% germination
[7] = Table 4, preconditioned seeds of lot IN146, raceF, aqueous control (0.001% DMSO) = 0% germination

Row | SMILES | Germination %* at concentration of 0.001 mg I^−1 [1, 3] [%] | Germination %* at concentration of 0.01 mg I^−1 [1, 3] [%] | Germination %* at concentration of 0.1 mg I^−1 [1, 3] [%] | also measured
1 | CC1=CC(OC=C2C(=O)NC3c4cccc(-c5ccccc5)c4CC23)OC1=O (mixture of isomers) [Compound A9] | 53.4 | 84.4 | 76.8 | 
2 | CC1=CC(OC=C2C(=O)NC3c4cccc(-c5ccncc5)c4CC23)OC1=O (mixture of isomers) [Compound A10] | 11.2 | 18.0 | 24.0 | 
3 | CC1=CC(OC=C2C(=O)NC3c4cccc(-c5cccnc5)c4CC23)OC1=O (mixture of isomers) [Compound A11] | 30.0 | 65.6 | 90.8 | 
4 | CC1=CC(OC=C2C(=O)NC3c4cccc(-c5nccs5)c4CC23)OC1=O (mixture of isomers) [Compound A12] | 13.0 | 7.0 | 26.8 | 
5 | CC1=CC(OC=C2C(=O)NC3c4cccc(-c5ccco5)c4CC23)OC1=O (mixture of isomers) [Compound A13] | 13.4 | 66.4 | 90.0 | 
6 | C=CCc1cccc2c1C[C@@H]1/C(=C\O[C@H]3C=C(C)C(=O)O3)C(=O)N[C@H]21 (relative stereo) [Compound A1, (3aR*,8bS*, 5′R*)-5-allyl-3-[1-(4-Methyl-5-oxo-2,5-dihydro-furan-2-yloxy)-meth-(E)-ylidene]-3,3a,4,8b-tetrahydro-1H-indeno[1,2-b]pyrrol-2-one] |  |  |  | Germination % at concentration of 0.001 mg I^−1 [1, 4]: 85.8%; Germination % at concentration of 0.01 mg I^−1 [1, 4]: 82.0%; Germination % at concentration of 0.1 mg I^−1 [1, 4]: 82.6%
7 | CC#Cc1cccc2c1C[C@@H]1/C(=C\O[C@H]3C=C(C)C(=O)O3)C(=O)N[C@H]21 (relative stereo) [Compound A4] |  |  |  | Germination % at concentration of 0.001 mg I^−1 [1, 5]: 97.6%; Germination % at concentration of 0.01 mg I^−1 [1, 5]: 94.4%; Germination % at concentration of 0.1 mg I^−1 [1, 5]: 98.2%
8 | COCC#Cc1cccc2c1C[C@@H]1/C(=C\O[C@H]3C=C(C)C(=O)O3)C(=O)N[C@H]21 (relative stereo) [Compound A5] |  |  |  | Germination % at concentration of 0.001 mg I^−1 [1, 5]: 79.0%; Germination % at concentration of 0.01 mg I^−1 [1, 5]: 91.4%; Germination % at concentration of 0.1 mg I^−1 [1, 5]: 99.2%
9 | CC1=C[C@H](O/C=C2/C(=O)N[C@@H]3c4cccc(C#Cc5ccccc5)c4C[C@H]23)OC1=O (relative stereo) [Compound A6] | 2.6 | 40.2 | 83.6 | 
10 | C=Cc1cccc2c1C[C@@H]1/C(=C\O[C@H]3C=C(C)C(=O)O3)C(=O)N[C@H]21 (relative stereo) [Compound A7] |  |  |  | Germination % at concentration of 0.001 mg I^−1 [1, 6]: 96.4%; Germination % at concentration of 0.01 mg I^−1 [1, 6]: 96.8%; Germination % at concentration of 0.1 mg I^−1 [1, 6]: 95.4%
11 | COC(=O)c1ccc2c(c1)C1NC(=O)/C(=C/O[C@H]3C=C(C)C(=O)O3)[C@H]1C2 (stereo in doubt) [Compound A3, methyl(3E,3aR,8bR)-3-[[(2R)-4-methyl-5-oxo-2H-furan-2-yl]oxymethylene]-2-oxo-1,3a,4,8b-tetrahydroindeno[1,2-b]pyrrole-7-carboxylate] |  |  |  | Germination % at concentration of 0.001 mg I^−1 [1, 7]: 85.8%; Germination % at concentration of 0.01 mg I^−1 [1, 7]: 82.0%; Germination % at concentration of 0.1 mg I^−1 [1, 7]: 82.6%; stimulation (extra germination compared to the DMSO treatment, expressed as percentage of the DMSO treatment) [2]: 36.7%; Gmax (total germination) ([2]; DMSO treatment = 31.3%): 43.0%
12 | C#Cc1cccc2c1C[C@@H]1/C(=C\O[C@H]3C=C(C)C(=O)O3)C(=O)N[C@H]21 [Compound A2, (3E,3aR,8bS)-5-ethynyl-3-[(4-methyl-5-oxo-2H-furan-2-yl)oxymethylene]-1,3a,4,8b-tetrahydroindeno[1,2-b]pyrrol-2-one] |  |  |  | Germination % at concentration of 0.001 mg I^−1 [1, 4]: 85.8%; Germination % at concentration of 0.01 mg I^−1 [1, 4]: 82.0%; Germination % at concentration of 0.1 mg I^−1 [1, 4]: 86.2%
13 | CC1=C[C@H](O/C=C2/C(=O)N[C@@H]3c4c(cccc4C4CC4)C[C@H]23)OC1=O [Compound A8, (3E,3aR,8bS)-8-cyclopropyl-3-[[(2R)-4-methyl-5-oxo-2H-furan-2-yl]oxymethylene]-1,3a,4,8b-tetrahydroindeno[1,2-b]pyrrol-2-one] | 81.2 | 88.5 | 86.8 | 
